Where a SMILES comes first, the peptide text is derived from it. The star is where a group is joined. Lauroyl = CCCCCCCCCCCC(=O)*; Decanoyl = CCCCCCCCCC(=O)*; Octanoyl = CCCCCCCC(=O)*
What was measured:
A. pullulans (Ap) = assay: microbe, parasite or virus in culture; format: cell-based, Aurobasidium pollulans; conditions: 48 h
Experimental: (§1) The synthesized peptides were screened for antifungal activity against the molds A. pullulans (Ap) and Rhodotorula sp. (Rh) (both obtained from Professor Arne Tronsmo, The Norwegian University of Life Sciences, Ås, Norway) and the yeast C. albicans (Ca, ATCC 10231) as previously described. In short, fungal spores were grown in potato dextrose broth media (Difco) containing 2% D(+)-glucose (Merck, Darmstadt, Germany) at 25–30 °C while shaking at 200 rpm overnight. The cultures were diluted with a dextrose media containing glucose to a concentration of approx. 4 × 10^5 spores/mL. Aliquots of the cultures (50 µL) were transferred to 96 well microtiter plates preloaded with the synthetic peptides (50 µL) in two-fold serial dilutions (256 to 1 µg/mL). Polymyxin B and CHX (both with concentrations ranging from 12.5 to 0.09 μg/mL) served as positive antibiotic controls. The microtiter plates containing the fungal spores and the test peptides were incubated at room temperature for 48 h and OD600 was recorded using a Synergy H1 Hybrid microplate reader system (BioTek, Winooski, VT, USA). MIC was defined as the lowest peptide concentration showing an optical density less than 10% of the negative (growth) control. All experiments were performed in triplicate.

[1] = tested on: Gram-positive bacterial strains; conditions: Table S3; MIC >256 set to 256
Experimental: (§2) All cyclic and linear peptides were screened for antibacterial activity against four Gram-positive strains: B. subtilis (Bs, ATCC 23857), C. glutamicum (Cg, ATCC 13032), S. aureus (Sa, ATCC 9144) and S. epidermidis RP62A (Se, ATCC 35984), and two Gram-negative strains: E. coli (Ec, ATCC 25922) and P. aeruginosa (Pa, ATCC 27853). The activity was assessed using a broth microdilution assay according to a modified CLSI-based method. Briefly, overnight bacterial cultures were grown in Mueller–Hinton (MH) broth medium (Difco Laboratories, Detroit, MI, USA) for 2 h at room temperature. The optical density (OD600) was measured, and the bacterial suspensions were adjusted to 2.5–3 × 10^4 CFU/mL in MH medium. The bacterial suspension (50 µL) was distributed in 96-well plates (Nunc, Roskilde, Denmark) preloaded with two-fold dilution series (256 to 1 µg/mL) of peptide solutions (50 µL), giving a final well volume of 100 µL. The microplates were incubated in an EnVision 2103 microplate reader (PerkinElmer, Llantrisant, UK) at 35 °C, with OD595 recorded every hour for 24 h. MIC was defined as the lowest concentration of peptides showing an optical density less than 10% of the negative (growth) control, consisting of bacterial suspension and water. Polymyxin B sulfate (Sigma-Aldrich, St. Louis, MO, USA) and chlorhexidine acetate (CHX, Fresenius Kabi, Halden, Norway), both with concentrations ranging from 12.5 to 0.09 μg/mL, served as positive (growth inhibition) controls. All peptides were tested in triplicate.

Rhodotorula sp. (Rh) = assay: microbe, parasite or virus in culture; format: cell-based; conditions: 48 h
Experimental: as §1

all bacterial strains = assay: Antibacterial MIC assay, all bacterial strains together (range or geometric mean); format: cell-based; conditions: for GM (geometric mean of the MIC values against all bacterial strains): Table 1, six bacterial strains; for GM of MIC Tot. bact.: Table S3, all bacterial test strains, MIC >256 set to 256
Experimental: The selectivity index (SI) of the peptides towards bacteria over eukaryotic cells was calculated using the geometric mean (GM) of the MIC values against all bacterial test strains, according to the method by Orlov et al.. The SI for each peptide was determined as the ratio of the RBC-EC50 value by the corresponding GM value. Larger SI values indicate greater selectivity for microbial cells. […] In general, the SI was higher against the Gram-positive bacteral strains than the Gram-negative strains. (Table S3). Overall, peptides displaying EC50 < 100 µg/mL were considered too haemolytic to be of interest for further exploration.
as §2

[2] = tested on: C. albicans (Ca, ATCC 10231); assay: microbe, parasite or virus in culture; format: cell-based, Candida albicans; conditions: ATCC 10231, 48 h
Experimental: as §1

[3] = tested on: S. epidermidis RP62A (Se, ATCC 35984); assay: microbe, parasite or virus in culture; format: cell-based, Staphylococcus epidermidis; conditions: ATCC 35984, 24 h
Experimental: as §2

[4] = tested on: human red blood cells (RBC); assay: Haemolytic activity assay; format: cell-based; conditions: for Selectivity index (SI) G- / Selectivity index (SI) G+ / Selectivity index (SI) Fungi: Table S3, highest tested concentration used where EC50 above it; for Selectivity index (SI) G-: EC50/GM of Gram-negative strains; for Selectivity index (SI) G+: EC50/GM of Gram-positive strains; for Selectivity index (SI) Fungi: EC50/GM of fungi; for SI (selectivity index = EC50/GM): haemolytic EC50 over GM of MIC against all bacterial strains, Table 1; for RBC Tox. (EC50), haemolytic activity: human RBC, 1 h, 37 °C, concentration giving 50% haemolysis
Experimental: The synthetized lipopeptides were screened for haemolytic activity against human red blood cells (RBC), in concentrations ranging from 500 to 3.9 μM, following a previously described protocol. In brief, haemolysis was determined using a heparinizied (10 IU/mL) fraction of freshly drawn human blood. A second fraction of blood, which was collected in test tubes containing ethylenediaminetetraacetic acid (EDTA, Vacutest, KIMA, Arzergrande, Italy), was used for determination of the hematocrit (hct). Plasma was removed from heparinized blood by washing three times with prewarmed phosphate-buffered saline (PBS) before being adjusted to a hematocrit of 4%. Peptides dissolved in dimethyl sulfoxide (DMSO) were further diluted with PBS to a final DMSO content of ≤1%. Triton X-100 (Sigma-Aldrich, St. Louis, MO, USA), used at a final concentration of 0.1%, served as a positive control for 100% haemolysis, whereas 1% DMSO in PBS buffer served as a negative control where no toxicity was detected. Duplicates of test solutions and erythrocytes, with 1% hct final concentration, were prepared in a 96-well polypropylene V-bottom plate (Nunc, Fischer scientific, Oslo, Norway). They were incubated under agitation at 37 °C and 800 rpm for 1 h. After centrifugation (5 min, 3000× g), 100 µL from each well were transferred to a flat-bottomed 96-well plate and absorbance was measured at 545 nm with a microplate reader (SpectraMax 190, Molecular Devices, San Jose, CA, USA). After subtracting PBS background, the percentage of haemolysis was calculated as the ratio of the absorbance in the peptide-treated and surfactant-treated samples. Three independent experiments were performed, and EC50 (the concentration giving 50% haemolysis) values are presented as averages.

E. coli (Ec, ATCC 25922) = assay: microbe, parasite or virus in culture; format: cell-based, Escherichia coli; conditions: ATCC 25922, 24 h
Experimental: as §2

[5] = tested on: Gram-negative bacterial strains (E. coli and P. aeruginosa); assay: Antibacterial MIC assay, Gram-negative strains together (range or geometric mean); format: cell-based; conditions: Table S3; MIC >256 set to 256
Experimental: as §2

[6] = tested on: C. glutamicum (Cg, ATCC 13032); assay: microbe, parasite or virus in culture; format: cell-based, Corynebacterium glutamicum; conditions: ATCC 13032, 24 h
Experimental: as §2

[7] = tested on: P. aeruginosa (Pa, ATCC 27853); assay: microbe, parasite or virus in culture; format: cell-based, Pseudomonas aeruginosa; conditions: ATCC 27853, 24 h
Experimental: as §2

[8] = tested on: fungi (A. pullulans, C. albicans, Rhodotorula sp.); assay: Antifungal MIC assay, all fungi together (range or geometric mean); format: cell-based; conditions: Table S3; MIC >128 set to 128
Experimental: as §1

[9] = tested on: B. subtilis (Bs, ATCC 23857); assay: microbe, parasite or virus in culture; format: cell-based, Bacillus subtilis; conditions: ATCC 23857, 24 h
Experimental: as §2

[10] = tested on: S. aureus (Sa, ATCC 9144); assay: microbe, parasite or virus in culture; format: cell-based, Staphylococcus aureus; conditions: ATCC 9144, 24 h
Experimental: as §2

SMILES	Antimicrobial Activity (MIC) Fungi Ap (A. pullulans (Ap)) [µg/mL]	GM of MIC G+ [1] [µg/mL]	Antimicrobial Activity (MIC) Fungi Rh (Rhodotorula sp. (Rh)) [µg/mL]	GM (geometric mean of the MIC values against all bacterial strains) (all bacterial strains) [µg/mL]	GM of MIC Tot. bact. (all bacterial strains) [µg/mL]	Antimicrobial Activity (MIC) Fungi Ca [2] [µg/mL]	Antimicrobial Activity (MIC) Gram + Se [3] [µg/mL]	Selectivity index (SI) G- [4]	Selectivity index (SI) G+ [4]	Selectivity index (SI) Fungi [4]	SI (selectivity index = EC50/GM) [4]	RBC Tox. (EC50), haemolytic activity [4] [µg/mL]	Antimicrobial Activity (MIC) Gram − Ec (E. coli (Ec, ATCC 25922)) [µg/mL]	GM of MIC G- [5] [µg/mL]	Antimicrobial Activity (MIC) Gram + Cg [6] [µg/mL]	Antimicrobial Activity (MIC) Gram − Pa [7] [µg/mL]	GM of MIC Fungi [8] [µg/mL]	Antimicrobial Activity (MIC) Gram + Bs [9] [µg/mL]	Antimicrobial Activity (MIC) Gram + Sa [10] [µg/mL]
CCCCCCCC(=O)N[C@@H](CS)C(=O)NCC(=O)N[C@@H](CCCNC(=N)N)C(=O)N[C@@H](CCCNC(=N)N)C(=O)N[C@@H](Cc1c[nH]c2ccccc12)C(=O)NCC(=O)N[C@@H](Cc1c[nH]c2ccccc12)C(=O)N[C@@H](Cc1c[nH]c2ccccc12)C(=O)N[C@@H](CCCNC(=N)N)C(=O)N[C@@H](CS)C(=O)N[C@@H](CCCNC(=N)N)C(=O)N[C@@H](CC(C)C)C(N)=O [Peptide C8-Turg-6, C8- CGRRWGWWRC RL-NH2] (Octanoyl-CGRRWGWWRCRL-NH2)	128	7	128	9	9	64	8	3	8	1	6	54	8	16	4	32	102	4	16
CCCCCCCC(=O)N[C@@H](CS)C(=O)NCC(=O)N[C@@H](CCCCN)C(=O)N[C@@H](CCCCN)C(=O)N1CCC[C@H]1C(=O)NCC(=O)NCC(=O)N[C@@H](Cc1c[nH]c2ccccc12)C(=O)N[C@@H](CCCCN)C(=O)N[C@@H](CS)C(=O)N[C@@H](CCCCN)C(=O)N[C@@H](CC(C)C)C(N)=O [Peptide C8-Turg-1, C8- CGKKPGGWKC KL-NH2] (Octanoyl-CGKKPGGWKCKL-NH2)	32	19	16	29	29	128	32	> 15	> 50	> 23	>33	>943	32	64	4	128	40	8	128
CCCCCCCCCCCC(=O)N[C@@H](CS)C(=O)NCC(=O)N[C@@H](CCCCN)C(=O)N[C@@H](CCCCN)C(=O)N[C@@H](Cc1c[nH]c2ccccc12)C(=O)N[C@@H](Cc1c[nH]c2ccccc12)C(=O)NCC(=O)N[C@@H](Cc1c[nH]c2ccccc12)C(=O)N[C@@H](CCCCN)C(=O)N[C@@H](CS)C(=O)N[C@@H](CCCCN)C(=O)N[C@@H](CC(C)C)C(N)=O [Peptide C12-Turg-2, C12- CGKKWWGWKC KL-NH2] (Lauroyl-CGKKWWGWKCKL-NH2)	32	11	32	14	14	64	8	2	5	1	4		16	23	16	32	40	8	16
CCCCCCCCCC(=O)N[C@@H](CS)C(=O)NCC(=O)N[C@@H](CCCCN)C(=O)N[C@@H](CCCCN)C(=O)N1CCC[C@H]1C(=O)NCC(=O)NCC(=O)N[C@@H](Cc1c[nH]c2ccccc12)C(=O)N[C@@H](CCCCN)C(=O)N[C@@H](CS)C(=O)N[C@@H](CCCCN)C(=O)N[C@@H](CC(C)C)C(N)=O [Peptide C10-Turg-1, C10- CGKKPGGWKC KL-NH2] (Decanoyl-CGKKPGGWKCKL-NH2)	32	7	8	10	10	64	8	> 42	> 142	> 38	>95	>957	16	23	4	32	25	4	16
